Marks after values point to notes of the source that are not given here.
Assays:
Assay type in all cases: cell-based, human
NPC1 promoter [1] = assay: qHTS of NPC1 Promoter-Luciferase Reporter Gene Assay (firefly, Huh7); details: 24 hours
Experimental: (§1) qHTS of NPC1 Promoter-Luciferase Reporter Gene Assay. For the second primary screen, a promoter assay was developed by engineering a vector using approximately 1.5 kb of the NPC1 promoter to drive the expression of the firefly luciferase reporter gene. Thus, NPC1 promoter activation results in luciferase expression. This vector was used to generate Huh7 cell lines stably expressing the NPC1-luciferase vector. […] Cells were plated for assays in OPTI-MEM I reduced-serum medium supplemented with 10% FBS at 1,500 cells/well in 5 μL in 1,536-well white opaque plates with 23 nL/well of test compound in DMSO solution. The assay plates were incubated at 37° C. for 24 hours, after which 3 μL/well BriteLite plus luciferase detection reagent mixture (Perkin Elmer) was added. Luminescence signal was measured in a ViewLux plate reader (Perkin Elmer) after a 10 minute incubation at room temperature.

Rab9 promoter = assay: qHTS of Rab9 Promoter-Luciferase Reporter Gene Assay (firefly, Huh7); details: 24 hours
Experimental: as §1, with “Rab9” for “NPC1”, “the” for “the second”, “Rab9-luciferase” for “NPC1-luciferase”

[2] = tested on: NPC1 patient cell fibroblasts; assay: Filipin Staining Assay to Detect Free Cholesterol Accumulation in NPC Cells; details: filipin fluorescence relative to untreated cells; for activity at 1 µM: Homo sapiens, Fibroblast, read-out: % storage at 1 μM
Experimental: Filipin Staining Assay to Detect Free Cholesterol Accumulation in NPC Cells. Compounds were evaluated for their effect on the NPC1 cellular phenotype by staining treated NPC1 patient cell fibroblasts with filipin, which recognizes free unesterified cholesterol. Compounds that upregulate the NPC1 promoter were expected to reduce the filipin staining in treated NPC1 fibroblasts compared to untreated NPC1 fibroblasts, indicating clearance of unesterified cholesterol. Conversely, inhibitors of the NPC1 promoter were expected to increase filipin staining in wild-type fibroblasts, thus indicating the emergence of an NPC-like phenotype. Briefly, cells were grown in lipoprotein-deficient medium for 3-4 days, and then the medium was replaced and supplemented with test compound plus 50 μg/mL low-density lipoprotein (LDL). After 24-48 hours, cells were stained with filipin and scored under the 40× magnification filter using the integrated morphometry function in the Metavue program (Molecular Devices). Test compounds that decreased the intensity of filipin fluorescence to less than 50% of untreated cells are considered of particular interest.

NPC1 promoter [3] = assay: Confirmation Assay of NPC1 Promoter Activators: Renilla Luciferase (Huh7); details: Homo sapiens, Huh-7, 24 hours; for Emax: read-out: NPC1-renilla Eff.
Experimental: Confirmation Assay of NPC1 Promoter Activators: Renilla Luciferase. The confirmation assay was carried out using an assay in which the NPC1 promoter drives the expression of a different luciferase protein from the one used in the primary screen. The NPC1 promoter was cloned in front of the renilla luciferase reporter gene. NPC1 promoter activation results in renilla luciferase expression. This vector was used to generate Huh7 cell lines stably expressing the NPC1-renilla luciferase vector. These cells were propagated and maintained in medium containing RPMI-1640 supplemented with 10% FBS, 2 mM L-glutamine, and 50 μg/mL penicillin/streptomycin. Cells were plated for assays in OPTI-MEM I reduced-serum medium supplemented with 10% FBS at 1,500 cells/well in 5 μL in 1,536-well white opaque plates and then 23 nL/well of compound in DMSO solution were added through pin transfer. The assay plates were incubated at 37° C. for 24 hours. The Amplite luciferase reporter gene assay kit was purchased from ABD Bioquest and prepared/stored according to manufacturer's recommendations. Luminescence signal was measured in a ViewLux plate reader (Perkin Elmer) after a 10 minute incubation at room temperature.

SMILES | EC50 (NPC1 promoter [1]) [µM] | NPC1 Eff. (NPC1 promoter [1]) | EC50 (Rab9 promoter) [µM] | Rab9 Eff. (Rab9 promoter) [%] | also measured
CC(=O)c1c(C)[nH]c(C(=O)Nc2cccc(S(=O)(=O)N3CCCC3)c2)c1C [Example 3] | 6.1 | 112% | 7.7 | 149 | 
CC(=O)c1c(C)[nH]c(C(=O)Nc2cccc(S(=O)(=O)N3CCCCC3)c2)c1C [Example 4] | 2.7 | 163% | 1.7 | 134 | 
Cc1cccc(C)c1C(=O)Nc1cccc(S(=O)(=O)N(C)C)c1 [Example 17] | 5.4 | 127% | 5.5 | 131 | 
Cc1ccc(C(=O)Nc2cccc(S(=O)(=O)N(C)C)c2)c(C)c1 [Example 18] | 5.4 | 79% | 12.2 | 97 | 
CC(=O)c1c(C)[nH]c(C(=O)Nc2cccc(S(=O)(=O)Nc3cccc(C#N)c3)c2)c1C [Example 31] |  |  |  |  | % storage at 1 μM [2]: 56%; NPC1 EC50 (NPC1 promoter [1]): Inactive
CCc1ccc(NC(=O)c2[nH]c(C)c(C(C)=O)c2C)cc1S(=O)(=O)Nc1ccc(Br)cc1 [Example 35] | 0.7 | 208% |  |  | 
CCc1ccc(NC(=O)c2[nH]c(C)c(C(C)=O)c2C)cc1S(=O)(=O)Nc1ccc(C#N)cc1 [Example 38] | 3.4 | 259% |  |  | % storage at 1 μM [2]: 62%
COc1ccc(NC(=O)c2[nH]c(C)c(C(C)=O)c2C)cc1S(=O)(=O)Nc1ccc(C#N)cc1 [Example 41] | 8.7 | 100% |  |  | % storage at 1 μM [2]: 58%
COc1ccc(NC(=O)c2[nH]c(C)cc2C)cc1S(=O)(=O)Nc1ccc(Br)cc1 [Example 42] |  |  |  |  | activity at 1 µM [2]: 47%; % storage at 0.1 μM [2]: 49%; EC50 (NPC1 promoter [3]): 2700 nM; Emax (NPC1 promoter [3]): 119%
COc1ccc(NC(=O)c2ccc[nH]2)cc1S(=O)(=O)Nc1ccc(Br)cc1 [Example 43] |  |  |  |  | EC50 (NPC1 promoter [3]): 4300 nM; Emax (NPC1 promoter [3]): 88%
COc1ccc(NC(=O)c2c(C)c(C(C)=O)c(C)n2C)cc1S(=O)(=O)Nc1ccc(Br)cc1 [Example 44] |  |  |  |  | EC50 (NPC1 promoter [3]): 500 nM; Emax (NPC1 promoter [3]): 245%
COc1ccc(NC(=O)c2ccccc2)cc1S(=O)(=O)Nc1ccc(Br)cc1 [Example 45] |  |  |  |  | activity at 1 µM [2]: 60%; EC50 (NPC1 promoter [3]): 1100 nM; Emax (NPC1 promoter [3]): 223%
COc1ccc(NC(=O)c2c(C)cccc2C)cc1S(=O)(=O)Nc1ccc(Br)cc1 [Example 46] |  |  |  |  | activity at 1 µM [2]: 46%; % storage at 0.1 μM [2]: 26%; EC50 (NPC1 promoter [3]): 1100 nM; Emax (NPC1 promoter [3]): 192%
COc1ccc(NC(=O)c2cccnc2C)cc1S(=O)(=O)Nc1ccc(Br)cc1 [Example 49] |  |  |  |  | activity at 1 µM [2]: 30%; EC50 (NPC1 promoter [3]): 5500 nM; Emax (NPC1 promoter [3]): 395%
COc1ccc(NC(=O)c2cccnc2)cc1S(=O)(=O)Nc1ccc(Br)cc1 [Example 51] |  |  |  |  | activity at 1 µM [2]: 29%; EC50 (NPC1 promoter [3]): 2700 nM; Emax (NPC1 promoter [3]): 257%
COc1ccc(NC(=O)c2[nH]c(C)c(C(C)=O)c2C)cc1S(=O)(=O)C1CCCCCC1 [Example 53] |  |  |  |  | activity at 1 µM [2]: 24%; % storage at 0.1 μM [2]: 55%
CC(=O)c1c(C)[nH]c(C(=O)Nc2ccc(OCCCN(C)C)c(S(=O)(=O)Nc3ccc(Br)cc3)c2)c1C [Example 54] |  |  |  |  | % storage at 1 μM [2]: 60%
COc1ccc(NC(=O)c2ncc[nH]2)cc1S(=O)(=O)Nc1ccc(Br)cc1 [Example 55] |  |  |  |  | % storage at 1 μM [2]: 30%
COc1ccc(NC(=O)c2c[nH]cn2)cc1S(=O)(=O)Nc1ccc(Br)cc1 [Example 56] |  |  |  |  | % storage at 0.1 μM [2]: 50%; % storage at 1 μM [2]: 48%
COc1ccc(NC(=O)c2c[nH]c(-c3ccccc3)n2)cc1S(=O)(=O)Nc1ccc(Br)cc1 [Example 57] |  |  |  |  | % storage at 0.1 μM [2]: 70%; % storage at 1 μM [2]: 41%
COc1ccc(NC(=O)c2[nH]c(C)c(C(C)=O)c2C)cc1S(=O)(=O)Nc1ccc(Cl)cc1 [Example 58] |  |  |  |  | % storage at 1 μM [2]: 58%
COc1ccc(NC(=O)c2[nH]c(C)c(C(C)=O)c2C)cc1S(=O)(=O)C1CCc2ccccc2CC1 [Example 59] |  |  |  |  | activity at 1 µM [2]: 40%

The next lines start with results.

EC50 (NPC1 promoter [1]) [µM] | NPC1 Eff. (NPC1 promoter [1]) | EC50 (Rab9 promoter) [µM] | Rab9 Eff. (Rab9 promoter) [%] | SMILES | also measured
7.7 | 155% | 8.7 | 181 | CCN(CC)S(=O)(=O)c1cccc(NC(=O)c2[nH]c(C)c(C(C)=O)c2C)c1 [Example 2] | 
2.7 to 2.9 | 196-205% | 2 | 153 | CC(=O)c1c(C)[nH]c(C(=O)Nc2cccc(S(=O)(=O)N3CCCCCC3)c2)c1C [Example 5] | 
 |  | 10.9 | 82 | CC(=O)c1c(C)[nH]c(C(=O)Nc2cccc(S(=O)(=O)N3CCN(C)CC3)c2)c1C [Example 6] | NPC1 EC50 (NPC1 promoter [1]): Inactive
8.3 | 84% | 12.2 | 122 | CC(=O)c1c(C)[nH]c(C(=O)Nc2cccc(S(=O)(=O)N3CCOCC3)c2)c1C [Example 7] | 
17.2 | 48% | 38.7 | 82 | Cc1cc(C)c(C(=O)Nc2cccc(S(=O)(=O)N(C)C)c2)[nH]1 [Example 8] | 
8.6 | 47% |  |  | CCc1c(C)[nH]c(C(=O)Nc2cccc(S(=O)(=O)N(C)C)c2)c1C [Example 9] | Rab9 EC50 (Rab9 promoter): Inactive
21.6 | 83% |  |  | CC(=O)c1c(C)c(C(=O)Nc2cccc(S(=O)(=O)N(C)C)c2)n(C)c1C [Example 10] | Rab9 EC50 (Rab9 promoter): Inactive
 |  | 6.9 | 54 | Cc1ccc(C(=O)Nc2cccc(S(=O)(=O)N(C)C)c2)cc1 [Example 13] | NPC1 EC50 (NPC1 promoter [1]): Inactive
4.8 | 51% | 17.3 | 114 | Cc1ccccc1C(=O)Nc1cccc(S(=O)(=O)N(C)C)c1 [Example 14] | 
6.1 | 81% | 19.4 | 75 | Cc1cccc(C(=O)Nc2cccc(S(=O)(=O)N(C)C)c2)c1 [Example 15] | 
1.2 | 125% | 1.4 | 155 | CN(C)S(=O)(=O)c1cccc(NC(=O)c2ccccc2C(F)(F)F)c1 [Example 16] | 
8.6 | 40% | 19.4 | 94 | CC(=O)c1cccc(C(=O)Nc2cccc(S(=O)(=O)N(C)C)c2)c1 [Example 19] | 
 |  | 10.9 | 110 | CC(=O)c1ccc(C(=O)Nc2cccc(S(=O)(=O)N(C)C)c2)cc1 [Example 20] | NPC1 EC50 (NPC1 promoter [1]): Inactive
15.4 | 71^a % |  |  | CC(=O)c1c(C)[nH]c(C(=O)Nc2cccc(S(=O)(=O)Nc3ccc(Br)c(F)c3)c2)c1C [Example 23] | 
4.3 | 80% |  |  | CC(=O)c1c(C)[nH]c(C(=O)Nc2cccc(S(=O)(=O)Nc3ccc(Br)cc3)c2)c1C [Example 32] | 
2.7 | 140% |  |  | CCc1ccc(NC(=O)c2[nH]c(C)c(C(C)=O)c2C)cc1S(=O)(=O)Nc1cccc(C#N)c1 [Example 33] | % storage at 0.1 μM [2]: 43%; % storage at 1 μM [2]: 35%
1.7 | 248% |  |  | CC(=O)c1c(C)[nH]c(C(=O)Nc2ccc(C)c(S(=O)(=O)Nc3ccc(Br)cc3)c2)c1C [Example 34] | 
0.9 | 129% |  |  | COc1ccc(NC(=O)c2[nH]c(C)c(C(C)=O)c2C)cc1S(=O)(=O)Nc1cccc(C#N)c1 [Example 40] | % storage at 1 μM [2]: 29%

Source: patent US10239830B2, “Benzenesulfonamide upregulators of NPC1 for Neimann-Pick disease and other lysosomal storage disorders” (ICAHN SCHOOL OF MEDICINE AT MOUNT SINAI, priority 2015, dated 2019)
